# Reference: publication PMC7406860, “Redox Imbalance and Oxidative DNA Damage During Isoniazid Treatment of HIV-Associated Tuberculosis: A Clinical and Translational Pharmacokinetic Study” (Frontiers in Pharmacology, 2020)
# Where two headings read alike, the source gives them in different places.
# Legend:
# [1] = Clinical parent-metabolite pharmacokinetic study, plasma exposures after oral isoniazid; type: in vivo, human (TB patients); conditions: for AUC(0-t): human
# Experimental: The parent-metabolite clinical pharmacokinetic study was approved by the Institutional Review Board of Rutgers University, Newark (protocol #20170001150). We performed intensive pharmacokinetic sampling for drug and metabolite concentrations in 10 TB patients (4 latent infection patients and 6 active TB patients) treated with isoniazid, in order to identify the relevant metabolite concentrations for subsequent pre-clinical experiments. After an overnight fast, patients were dosed with oral isoniazid (300 mg). A pre-dose blood draw was performed, with additional blood draws at 1, 2, 4, 6, and 8 h after dosing. Following centrifugation, plasma samples were stored at -80C until shipment to Alturas Analytics (Moscow, ID) for analysis. […] Noncompartmental pharmacokinetic analysis was performed to determine area under the concentration-versus-time curve (AUC), extrapolated over a 24-h dosing interval according to the slope defined in the elimination phase.
# [2] = Linear regression of urine oxidative DNA damage (8-OHdG) on isoniazid pharmacokinetic exposures in HIV/TB patients; type: in vivo, human (HIV/TB patients, Botswana)
# Description: We conducted a prospective cohort study of isoniazid pharmacokinetics among HIV/TB patients at 22 public clinics and Princess Marina Hospital in Gaborone, Botswana. The study population has been previously described ([Vinnard et al., 2017]). Eligibility criteria included citizens of Botswana, HIV infected adults (21 years of age or older) naïve to ART therapy, and newly diagnosed with pulmonary TB initiated on standard first-line TB regimens at weight-based dosing bands recommended in accordance with WHO guidelines. The study visit occurred between 5 and 28 days after initiation of first-line TB therapy that included isoniazid, prior to initiation of ART therapy.
# After an overnight fast, the anti-TB drugs were directly administered. Blood samples (10 ml) were drawn at 0, 0.3, 0.9, 2.2, 4.5, and 8 h post-dosing, based on optimal sampling theory to estimate isoniazid pharmacokinetic parameters. Plasma isoniazid concentrations were measured with liquid chromatography-tandem mass spectrometry (LC-MS/MS) methods as previously described. The peak plasma concentration (Cmax) was obtained directly from the concentration-versus-time data), model-predicted isoniazid concentrations were used to estimate the area under the concentration-versus-time curve during a 24-h interval (AUC0-24). A spot urine sample (approximately 50 ml) was collected 4 h following anti-TB drug dosing and frozen at -80C until analysis. We measured urinary concentrations of 8-OHdG, a marker of oxidative DNA damage that is stable in cryopreserved urine samples, normalized to urine creatinine. The DNA Damage Competitive ELISA kit (ThermoFisher Scientific) was performed using a 1:4 dilution of urine-to-assay buffer. The manufacturer’s instructions were followed with one modification to the protocol. Antigen binding was performed overnight at 4°C with shaking in lieu of a 2-h incubation at room temperature. Each assay was performed in triplicate. Optical absorption was assessed using a Synergy H1 Hybrid Multimode Reader (BioTek). […]
# [3] = system: HepG2 cells; test: Cytotoxicity (bis-AAF-R110 substrate, Mitochondrial ToxGlo Assay), long-term exposure; type: cell-based, human; conditions: HepG2, 10 µM, up to 28 days exposure
# [4] = system: HepG2 cells; test: CometChip imaging of cellular DNA damage; type: cell-based, human; conditions: HepG2, 10 µM, 1 week; as compared to isoniazid
# Experimental: (§1) The human liver carcinoma cell line, HepG2, is highly differentiated and is often used to screen the cytotoxicity potential of new chemical entities early in drug development ([Gerets et al., 2012]). HepG2 cells were cultured in Dulbecco’s modified Eagle’s medium (DMEM) supplemented with 10% fetal bovine serum (FBS), 100 U/ml penicillin, 100 μg/ml streptomycin, and 2mM L-glutamine, unless otherwise stated. Cells were continuously incubated at 37°C in a humidified 5% CO2/95% air environment and plated in a 12-well plate at 4x10^5 cells/well, over a duration of 24 h prior to compound exposure. Compound stocks dissolved in water were freshly made each exposure day. Cellular supernatant was replaced with 2 ml of culture media containing 10 µM of compound and left to incubate until 90% confluency was reached. Cell passages were conducted every 3 days under continual exposure to the designated compound for the indicated time period. Cellular supernatant was collected at each passage, clarified, aliquoted, and stored at -80°C for future analysis. Treated cells and supernatants were then examined for markers of cytotoxicity, mitochondrial toxicity, and oxidative DNA damage as described below.
# Cells treated for 1 week with 10 µM of compound were plated onto a CometChip (Trevigen) at 2x10^5 cells/ml in a single cell suspension ([Ge et al., 2014]). Cells were incubated on the chip for 60 min at 37°C. The plate was then gently washed with PBS and coated with 1% low melting agarose. After the agarose was solidified by cooling at 4°C, the plate was washed with pre-chilled non-activated alkaline lysis buffer (2.5 M NaCl, […] Na2EDTA, 10mM Tris, pH 10). The chip was lysed overnight at 4°C by submerging the chip in the alkaline lysis buffer containing 1% Triton-X. The plate was then washed with PBS and placed in an electrophoresis chamber filled with pre-chilled alkaline electrophoresis buffer (2mM Na2 EDTA, 300 mM NaOH). Following a 40 min incubation at 4°C to allow for alkaline unwinding, electrophoresis was carried out at 80 volts for 30 min at 4°C. […]
# [5] = system: HepG2 cells; test: 8-OHdG in cellular supernatant (competition ELISA); type: cell-based, human; conditions: HepG2, 10 µM, 28 days exposure
# Experimental: as §1
# Determination of 8-OHdG content in cellular supernatant was assed using an in-house competition ELISA. […] Absorbance at 405 nm was then measured on a Synergy H1 Hybrid Multi-Mode Reader (BioTek).
# [6] = system: HepG2 cells; test: ATP production (Mitochondrial ToxGlo Assay); type: cell-based, human; conditions: HepG2, 10 µM, 28 days of treatment
# Experimental: The human liver carcinoma cell line, HepG2, is highly differentiated and is often used to screen the cytotoxicity potential of new chemical entities early in drug development ([Gerets et al., 2012]). HepG2 cells were cultured in Dulbecco’s modified Eagle’s medium (DMEM) supplemented with 10% fetal bovine serum (FBS), 100 U/ml penicillin, 100 μg/ml streptomycin, and 2mM L-glutamine, unless otherwise stated. Cells were continuously incubated at 37°C in a humidified 5% CO2/95% air environment and plated in a 12-well plate at 4x10^5 cells/well, over a duration of 24 h prior to compound exposure. Compound stocks dissolved in water were freshly made each exposure day. […]
# Mitochondrial toxicity analysis was assayed using the Mitochondrial ToxGlo Assay (Promega, Madison, WI) following the manufacturer’s instructions. […] Following a 24-h incubation with compound, cytotoxicity was evaluated by the addition of a fluorogenic peptide substrate, bis-AAF-R110, to the cell supernatant for 30 min at 37°C. […] After the cells were allowed to incubate for 30 min at 37°C, fluorescence intensity was measured at 485nmEx/525nmEm. […] Cell lysis mixture was transferred to a 96-well flat solid white bottom plate and luminescence intensity was measured. Assays of fluorescence and luminescence activity were performed with a Synergy H1 Hybrid Multi-Mode Reader (BioTek, Winooski, VT).
# [7] = system: HepG2 cells; test: Immunofluorescence for γ-H2AX; type: cell-based, human; conditions: HepG2, 10 µM, 1-week exposure period; compared among the four compounds
# Experimental: as §1
# H2Ax is a core histone protein found in the nucleosome, and the phosphorylation of H2Ax is a marker of DNA damage caused by ROS. […]
# [8] = system: HepG2 cells; test: Mitochondrial membrane integrity (TMRM); type: cell-based, human; conditions: HepG2, 10 µM, 28 days of exposure
# Experimental: as §1, with “Treated cells and supernatants were then examined for markers of cytotoxicity, mitochondrial toxicity, and oxidative DNA damage as described below.” left out
# To assess mitochondrial membrane integrity, black 96-well polystyrene clear bottom plates were coated with 50 µg/ml of poly-d-lysine for 1 h at 37°C. […] Following three washes with PBS, fluorescent intensity at 488nmEx/570nmEm was measured on a Synergy H1 Hybrid Multi-Mode Reader (BioTek).
# [9] = system: HepG2 cells; test: Free thiol availability assay (ThiolTracker Violet), glutathione depletion; type: cell-based, human; conditions: HepG2, 10 µM, 28-day exposure period
# Experimental: as §1, with “Cellular supernatant was collected at each passage, clarified, aliquoted, and stored at -80°C for future analysis. Treated cells and supernatants were then examined for markers of cytotoxicity, mitochondrial toxicity, and oxidative DNA damage as described below.” left out
# By serving as targets of ROS, thiols provide the cellular defense system against oxidative stress. […] Cellular glutathione depletion was quantified in a free thiol availability assay ([Mandavilli and Janes, 2010]). […] Following a 30 min incubation at 37°C, cells were washed three times with D-PBS +C/M. Fluorescent intensity at 404nmEx/526nmEm was measured on a Synergy H1 Hybrid Multi-Mode Reader (BioTek).
# [10] = 10 isoniazid-treated patients, oral isoniazid 300 mg, noncompartmental, extrapolated over 24-h dosing interval
structure (smiles),measurement,setting,value
NNC(=O)c1ccncc1 [Isoniazid],AUC(0-t),"[1]; plasma, 10 isoniazid-treated patients, oral isoniazid 300 mg, noncompartmental, extrapolated over 24-h dosing interval, read-out: Observed median (range) of plasma AUC0-24",60.5 µM·h
same,"Unadjusted regression coefficient (95% CI), isoniazid log AUC0-24 vs urine oxidative DNA damage","[2]; HIV/TB patients, first-line TB therapy","0.474 (-0.272, 1.221)"
same,"Unadjusted regression coefficient (95% CI), isoniazid Cmax (mg/L) vs urine oxidative DNA damage","[2]; HIV/TB patients, first-line TB therapy, urine 8-OHdG normalized to creatinine","0.153 (-0.060, 0.366)"
same,"Adjusted regression coefficient (95% CI), isoniazid Cmax (mg/L) vs urine oxidative DNA damage","[2]; adjusted for body weight, creatinine clearance, GSTA2 genotype","0.241 (0.020, 0.462)"
same,Overall cytotoxicity,[3],no appreciable cytotoxicity
CC(=O)NNC(=O)c1ccncc1 [Acetylisoniazid],DNA damage by CometChip microscopy,[4],greater levels of DNA damage
same,AUC(0-t),"[1]; in vivo, po, 300 mg",158 µM·h
CC(=O)NN [Acetylhydrazine],DNA damage by CometChip microscopy,[4],greater levels of DNA damage
same,Observed median (range) of plasma AUC0-24,[1]; [10],"66.6 (43.2, 198.0) uM*hr"
NN [Hydrazine],DNA damage by CometChip microscopy,[4],greater levels of DNA damage
same,8-OhDG levels in cell supernatant,[5],highest increase
same,Cellular ATP production impairment,[6],greatest impairment
same,γ-H2AX levels (double-stranded DNA breaks),[7],greatest
same,Observed median (range) of plasma AUC0-24,[1]; [10],"14.5 (3.0, 27.8) uM*hr"
same,TMRM depletion (mitochondrial membrane integrity),[8],greatest depletion
same,Thiol depletion (free thiol availability),[9],greatest
